# Laboratory results as given in patent publication US10301629B2, “Structure, manufacturing and uses of human-derived cell-permeable peptides conjugated with specific biologically active cargo peptides” (priority 2013, dated 2019).
# Test system: cytokine response to LPS
# Assay: Mouse endotoxin (LPS) challenge, peptide pretreatment 30 minutes prior, plasma cytokines
# Conditions: peptide 500 micrograms per mouse, dexamethasone 3 mg/kg, PPL-002 p<0.01
# Experimental: The ability of peptide pretreatment to inhibit the inflammatory cytokine response or stimulate the anti-inflammatory cytokine response to LPS was determined 2 hours after LPS injection (FIG. 10).
# Peptides were dosed both i.p. and i.v. at 500 micrograms per mouse (10 mg/kg) 30 minutes prior to challenge by injection of endotoxin (LPS) at a dose of 50 micrograms/kg.
smiles,measurement,value
"C[C@@H]1C[C@H]2[C@@H]3CCC4=CC(=O)C=C[C@]4(C)[C@@]3(F)[C@@H](O)C[C@]2(C)[C@@]1(O)C(=O)CO [Dexamethasone, dexamethasone, reference compound]","IL-10 level after LPS challenge, i.p. pretreatment",no effect
